Source: patent publication US20250049948A1, “NOVEL IONIZABLE LIPIDS AND LIPID NANOPARTICLES AND METHODS OF USING THE SAME” (Sail Biomedicines, Inc., priority 2021, published 2025)

Legend:
[1] = mRNA encapsulation efficiency, Quant-iT RiboGreen RNA Assay; type: physicochemical
Experimental: (§1) For each LNP composition, the lipid mix and mRNA solution were mixed at a 1:3 ratio by volume, respectively, on a NanoAssemblr Ignite (Precision Nanosystems) at a total flow rate of 9 mL/min. The resulting compositions were then loaded into Slide-A-Lyzer G2 dialysis cassettes (10 k MWCO) and dialyzed in 200 times sample volume of 1×PBS for 2 hours at room temperature with gentle stirring. The PBS was refreshed, and the compositions were further dialyzed for at least 14 hours at 4° C. with gentle stirring. The dialyzed compositions were then collected and concentrated by centrifugation at 3000×g using Amicon Ultra centrifugation filters (100 k MWCO). The concentrated particles were characterized for size, polydispersity, and particle concentration using Zetasizer Ultra (Malvern Panalytical) and for mRNA encapsulation efficiency using Quant-iT RiboGreen RNA Assay Kit (ThermoFisher Scientific).

[2] = LNP size and polydispersity, Zetasizer Ultra; type: physicochemical
Experimental: as §1

Balb/c mice [3] = assay: EPO levels in plasma, EPO MSD kit (Example 6); type: in vivo; conditions: mRNA dose 5 μg FLUC + 5 μg EPO, intravenous
Balb/c mice [4] = assay: In-vivo bioluminescent imaging of LNP compositions (Example 6); conditions: for Bioluminescence (IV) Liver / Bioluminescence (IV) Lung / Bioluminescence (IV) Spleen / Bioluminescence (IV) Whole Body: 4-6 hours post-dose; for Spleen: Liver Ratio: intravenous
[5] = Apparent LNP pKa, TNS assay; type: physicochemical; conditions: LNP with FLUC/EPO 1:1 mRNA
Experimental: For pKa measurement, a […] assay was conducted according to those described in Sabnis et al., Molecular Therapy, 26(6):1509-19), which is incorporated herein by reference in its entirety. Briefly, 20 buffers (10 mM sodium phosphate, 10 mM sodium borate, 10 mM sodium citrate, and 150 mM sodium chloride, in distilled Water) of unique pH values ranging from 3.0-12.0 were prepared using 1M sodium hydroxide and 1M hydrochloric acid. 3.25 μL of a LNP composition (0.04 mg/mL mRNA, in PBS) was incubated with 2 μL of TNS reagent (0.3 mM, in DMSO) and 90 μL of buffer for each pH value (described above) in a 96-well black-walled plate. Each pH condition was performed in triplicate wells. The TNS fluorescence was measured using a Biotek Cytation Plate reader at excitation/emission wavelengths of 321/445 nm. The fluorescence values were then plotted and fit using a 4-parameter sigmoid curve. From the fit, the pH value yielding the half-maximal fluorescence was calculated and reported as the apparent LNP pKa value.

[6] = mRNA dose 5 μg FLUC (CRE/FLUC 1:1 LNP)

| SMILES | % EE ([1]; LNP with CRE/FLUC 1:1 mRNA) [%] | PDI ([2]; LNP with CRE/FLUC 1:1 mRNA) | Size (nm) ([2]; LNP with CRE/FLUC 1:1 mRNA) | % EE ([1]; LNP with FLUC/EPO 1:1 mRNA) [%] | PDI ([2]; LNP with FLUC/EPO 1:1 mRNA) | Size (nm) ([2]; LNP with FLUC/EPO 1:1 mRNA) | hEPO (Balb/c mice [3]) | Bioluminescence (IV) Liver (Balb/c mice [4]; mRNA dose 5 μg FLUC + 5 μg EPO) | Bioluminescence (IV) Lung (Balb/c mice [4]; mRNA dose 5 μg FLUC + 5 μg EPO) | Bioluminescence (IV) Spleen (Balb/c mice [4]; mRNA dose 5 μg FLUC + 5 μg EPO) | Bioluminescence (IV) Whole Body (Balb/c mice [4]; mRNA dose 5 μg FLUC + 5 μg EPO) | Spleen: Liver Ratio (Balb/c mice [4]; mRNA dose 5 μg FLUC + 5 μg EPO) | Bioluminescence (IV) Liver (Balb/c mice [4]; [6]) | Bioluminescence (IV) Lung (Balb/c mice [4]; [6]) [E + 03] | Bioluminescence (IV) Spleen (Balb/c mice [4]; [6]) | Bioluminescence (IV) Whole Body (Balb/c mice [4]; [6]) | Spleen: Liver Ratio (Balb/c mice [4]; [6]) | also measured |
| --- | --- | --- | --- | --- | --- | --- | --- | --- | --- | --- | --- | --- | --- | --- | --- | --- | --- | --- |
| CCCCCCC(CCCCCC)CCCOC(=O)CCCCCCCN(CCCCCCCC(=O)OCCCC(CCCCCC)CCCCCC)C(=O)CCN1CCCC1 [Compound 2142, bis(4-hexyldecyl) 8,8′-((3-(pyrrolidin-1-yl)propanoyl)azanediyl) dioctanoate] | – | – | – | 96.7 | 0.06 | 69.2 | 7.3E + 03 | 2.4E + 05 | 2.0E + 05 | 5.6E + 05 | 7.8E + 05 | 2.758 | – | – | – | – | – | – |
| CCCCCCC(CCCCCC)CCCOC(=O)CCCCCCCN(CCCCCCCC(=O)OCCCC(CCCCCC)CCCCCC)CCOCCOCCN(C)C [Compound 2145, 4-hexyldecyl 11-(8-((4-hexyldecyl)oxy)-8-oxooctyl)-2-methyl-5,8-dioxa-2,11-diazanonadecan-19-oate] | – | – | – | 97.6 | 0.21 | 95.4 | 8.4E + 02 | 1.1E + 05 | 7.2E + 04 | 1.2E + 03 | 4.0E + 03 | 0.012 | – | – | – | – | – | – |
| CCCCCCCCC(CCCCCC)C(=O)OCCCCCCN(CCCCCCOC(=O)C(CCCCCC)CCCCCCCC)CCOCCOCCN(C)C (centres unmarked) [Compound 2216, 11-(6-((2-hexyldecanoyl)oxy)hexyl)-2-methyl-5,8-dioxa-2,11-diazaheptadecan-17-yl 2-hexyldecanoate] | – | – | – | 96.8 | 0.11 | 88.81 | – | 3.2E + 05 | 9.0E + 03 | 3.8E + 05 | 1.5E + 06 | 1.539 | – | – | – | – | – | pKa (TNS) [5]: 7 |
| CCCCCCC(CCCCCC)CCCOC(=O)CCCCCCCN(CCCCCCCC(=O)OCCCC(CCCCCC)CCCCCC)CCC(O)CN(C)C (centres unmarked) [Compound 2139, bis(4-hexyldecyl) 8.8′-((4-(dimethylamino)-3-hydroxybutyl)azanediyl) dioctanoate] | – | – | – | 98.3 | 0.18 | 88.6 | 2.0E + 02 | 1.7E + 05 | 2.2E + 05 | 1.0E + 05 | 4.1E + 04 | 0.583 | – | – | – | – | – | – |
| CCCCCC(CCCCC)CCCOC(=O)CCCCCCCN(CCCCCCCC(=O)OCCCC(CCCCC)CCCCC)CCC(O)CN(C)C (centres unmarked) [Compound 2138, bis(4-pentylnonyl) 8,8′-((4-(dimethylamino)-3-hydroxybutyl)azanediyl) dioctanoate] | 97 | 0.35 | 112.7 | – | – | – | – | – | – | – | – | – | 1.7E + 05 | 1.2 | 2.8E + 04 | 3.7E + 03 | 0.236 | – |
| CCCCCCCCC(CCCCCC)C(=O)OCCCCCCN(CCCCCCOC(=O)C(CCCCCC)CCCCCCCC)C(=O)CCN1CCCC1 (centres unmarked) [Compound 2215, ((3-(pyrrolidin-1-yl)propanoyl)azanediyl)bis (hexane-6,1-diyl) bis(2-hexyldecanoate)] | – | – | – | 96.3 | 0.1 | 80.18 | – | 2.2E + 06 | 6.5E + 04 | 6.6E + 05 | 3.2E + 07 | 0.449 | – | – | – | – | – | pKa (TNS) [5]: 7.12 |
| CCCCCC(CCCCC)CCCNC(=O)CCCCCCCN(CCCCCCCC(=O)NCCCC(CCCCC)CCCCC)C(=O)CCN1CCCC1 [Compound 2241, 8-(N-(8-oxo-8-((4-pentylnonyl)amino)octyl)-3-(pyrrolidin-1-yl)propanamido)-N-(4-pentylnonyl) octanamide] | – | – | – | 94.7 | 0.15 | 100.89 | 1.6E + 03 | 3.5E + 03 | 5.4E + 04 | 7.6E + 04 | 3.1E + 04 | 22.241 | – | – | – | – | – | – |
| CCCCCCC(CCCCCC)CCCOC(=O)CCCCCN(CCCCCC(=O)OCCCC(CCCCCC)CCCCCC)C(=O)CCN1CCCC1 [Compound 2143, bis(4-hexyldecyl) 6,6′-((3-(pyrrolidin-1-yl)propanoyl)azanediyl)dihexanoate] | 97.1 | 0.11 | 78.6 | – | – | – | – | – | – | – | – | – | 1.3E + 05 | 6.3 | 6.5E + 05 | 1.7E + 05 | 5.050 | % EE ([1]; LNP with EGFP mRNA): 97.3%; PDI ([2]; LNP with EGFP mRNA): 0.08; Size (nm) ([2]; LNP with EGFP mRNA): 83.4 nm |
| CCCCCCC(CCCCCC)CCCOC(=O)CCCCCN(CCCCCC(=O)OCCCC(CCCCCC)CCCCCC)CCC(O)CN(C)C (centres unmarked) [Compound 2140, bis(4-hexyldecyl) 6.6′-((4-(dimethylamino)-3-hydroxybutyl)azanediyl)dihexanoate] | 96.9 | 0.16 | 86.9 | – | – | – | – | – | – | – | – | – | 1.6E + 03 | 5.3 | 1.2E + 05 | 4.3E + 04 | 76.18 | – |
| CCCCCCC(CCCCCC)CCCOC(=O)CCCCCCCN(CCCCCCCC(=O)OCCCC(CCCCCC)CCCCCC)CCCCN(C)C [Compound 2130, bis(4-hexyldecyl) 8,8′-((4-(dimethylamino)butyl)azanediyl) dioctanoate] | – | – | – | 98.5 | 0.13 | 68.7 | 1.5E + 02 | 7.0E + 04 | 1.4E + 05 | 3.0E + 03 | 1.2E + 04 | 0.045 | – | – | – | – | – | – |

Now from value to compound, other results behind:

| % EE ([1]; LNP with CRE/FLUC 1:1 mRNA) [%] | PDI ([2]; LNP with CRE/FLUC 1:1 mRNA) | Size (nm) ([2]; LNP with CRE/FLUC 1:1 mRNA) | SMILES | % EE ([1]; LNP with FLUC/EPO 1:1 mRNA) [%] | PDI ([2]; LNP with FLUC/EPO 1:1 mRNA) | Size (nm) ([2]; LNP with FLUC/EPO 1:1 mRNA) | hEPO (Balb/c mice [3]) | Bioluminescence (IV) Liver (Balb/c mice [4]; mRNA dose 5 μg FLUC + 5 μg EPO) | Bioluminescence (IV) Lung (Balb/c mice [4]; mRNA dose 5 μg FLUC + 5 μg EPO) | Bioluminescence (IV) Spleen (Balb/c mice [4]; mRNA dose 5 μg FLUC + 5 μg EPO) | Bioluminescence (IV) Whole Body (Balb/c mice [4]; mRNA dose 5 μg FLUC + 5 μg EPO) | Spleen: Liver Ratio (Balb/c mice [4]; mRNA dose 5 μg FLUC + 5 μg EPO) | Bioluminescence (IV) Liver (Balb/c mice [4]; [6]) | Bioluminescence (IV) Lung (Balb/c mice [4]; [6]) [E + 03] | Bioluminescence (IV) Spleen (Balb/c mice [4]; [6]) | Bioluminescence (IV) Whole Body (Balb/c mice [4]; [6]) | Spleen: Liver Ratio (Balb/c mice [4]; [6]) | also measured |
| --- | --- | --- | --- | --- | --- | --- | --- | --- | --- | --- | --- | --- | --- | --- | --- | --- | --- | --- |
| 97.7 | 0.13 | 76.3 | CCCCCC(CCCCC)CCCOC(=O)CCCCCCCN(CCCCCCCC(=O)OCCCC(CCCCC)CCCCC)C(=O)CCCN(C)C [Compound 2132, bis(4-pentylnonyl) 8,8′-((4-(dimethylamino)butanoyl)azanediyl) dioctanoate] | – | – | – | – | – | – | – | – | – | 1.4E + 05 | 1.7 | 2.5E + 04 | 7.0E + 03 | 0.212 | % EE ([1]; LNP with EGFP mRNA): 97.2%; PDI ([2]; LNP with EGFP mRNA): 0.20; Size (nm) ([2]; LNP with EGFP mRNA): 90.4 nm |
| 96.5 | 0.26 | 81.0 | CCCCCCC(CCCCCC)CCCOC(=O)CCCCCN(CCCCCC(=O)OCCCC(CCCCCC)CCCCCC)CCOCCOCCN(C)C [Compound 2146, 4-hexyldecyl 11-(6-((4-hexyldecyl)oxy)-6-oxohexyl)-2-methyl-5,8-dioxa-2,11-diazaheptadecan-17-oate] | – | – | – | – | – | – | – | – | – | 9.7E + 04 | 1.2 | 4.7E + 04 | 7.4E + 03 | 0.505 | – |
| 97.1 | 0.13 | 71.2 | CCCCCCC(CCCCCC)CCCOC(=O)CCCCCN(CCCCCC(=O)OCCCC(CCCCCC)CCCCCC)CCCCN(C)C [Compound 2131, bis(4-hexyldecyl) 6,6′-((4-(dimethylamino)butyl)azanediyl) dihexanoate] | – | – | – | – | – | – | – | – | – | 1.3E + 05 | 2.4 | 9.5E + 03 | 1.2E + 04 | 0.076 | – |
| 96.8 | 0.26 | 78.0 | CCCCCC(CCCCC)CCCOC(=O)CCCCCCCN(CCCCCCCC(=O)OCCCC(CCCCC)CCCCC)CCOCCOCCN(C)C [Compound 2144, 4-pentylnonyl 2-methyl-11-(8-oxo-8-((4-pentylnonyl)oxy)octyl)-5,8-dioxa-2,11-diazanonadecan-19-oate] | – | – | – | – | – | – | – | – | – | 7.4E + 04 | 1.2 | 3.0E + 04 | 7.1E + 03 | 0.401 | % EE ([1]; LNP with EGFP mRNA): 98.3%; PDI ([2]; LNP with EGFP mRNA): 0.29; Size (nm) ([2]; LNP with EGFP mRNA): 73.5 nm |
